Results as given in patent US10781204B2, “TYK2 inhibitors and uses thereof” (Nimbus Lakshmi, Inc., priority 2015, dated 2020).

How the values were obtained:
TYK2 = TYK2 (Homo sapiens (Human), UniProt P29597); test: Tyk2 radioactive kinase assay; assay type: biochemical; conditions: ATP 10 μM
Procedure, shortened: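 Recombinant human TYK2 (Invitrogen) was mixed with 20 μM peptide substrate in a buffer of 20 mM Hepes pH 7.5, 10 mM MgCl2, 1 mM EGTA, 0.02% Brij35, 0.02 mg/mL BSA, 0.1 mM […], 2 mM DTT and 1% DMSO, and compounds in DMSO were added. Adding ^33P-ATP (10 μM ATP) started the reaction, which ran 120 min at room temperature. Mixtures were then spotted onto P81 ion-exchange paper, washed thoroughly in 0.75% phosphoric acid, and counted for radioactivity.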

JAK2 = JAK2 (Homo sapiens (Human), UniProt O60674); test: JAK2 radioactive kinase assay; assay type: biochemical; conditions: ATP 10 μM
JAK2, sequence (O60674 whole entry): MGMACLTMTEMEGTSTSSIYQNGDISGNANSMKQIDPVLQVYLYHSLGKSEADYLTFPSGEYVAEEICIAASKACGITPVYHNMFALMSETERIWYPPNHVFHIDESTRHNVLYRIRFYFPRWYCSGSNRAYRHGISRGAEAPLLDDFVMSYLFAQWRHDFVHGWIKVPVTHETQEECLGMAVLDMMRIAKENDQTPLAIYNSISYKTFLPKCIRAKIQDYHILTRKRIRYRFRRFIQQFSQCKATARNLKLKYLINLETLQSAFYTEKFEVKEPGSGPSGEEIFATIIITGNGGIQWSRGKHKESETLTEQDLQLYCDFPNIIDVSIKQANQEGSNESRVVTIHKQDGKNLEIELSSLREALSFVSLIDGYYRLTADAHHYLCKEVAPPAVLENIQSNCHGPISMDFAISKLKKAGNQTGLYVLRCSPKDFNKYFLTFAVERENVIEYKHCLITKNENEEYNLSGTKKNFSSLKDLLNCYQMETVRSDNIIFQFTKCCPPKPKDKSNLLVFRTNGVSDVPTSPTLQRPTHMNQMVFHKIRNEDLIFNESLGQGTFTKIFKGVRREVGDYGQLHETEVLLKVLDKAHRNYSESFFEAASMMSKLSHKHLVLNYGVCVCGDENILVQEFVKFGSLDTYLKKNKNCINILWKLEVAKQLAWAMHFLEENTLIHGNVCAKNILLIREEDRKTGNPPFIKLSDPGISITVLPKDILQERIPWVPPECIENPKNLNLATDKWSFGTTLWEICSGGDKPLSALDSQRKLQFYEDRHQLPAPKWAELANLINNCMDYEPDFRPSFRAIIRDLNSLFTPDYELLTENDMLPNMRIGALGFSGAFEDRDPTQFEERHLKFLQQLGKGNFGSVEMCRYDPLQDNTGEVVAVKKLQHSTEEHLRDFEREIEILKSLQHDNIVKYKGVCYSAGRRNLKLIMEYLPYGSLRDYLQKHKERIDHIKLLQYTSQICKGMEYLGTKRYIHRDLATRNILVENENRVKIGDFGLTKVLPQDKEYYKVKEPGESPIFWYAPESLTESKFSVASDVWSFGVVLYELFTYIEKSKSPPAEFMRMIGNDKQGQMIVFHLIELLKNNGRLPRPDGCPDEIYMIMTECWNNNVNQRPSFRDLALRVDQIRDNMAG
Procedure, shortened: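 Radiometric assay in Hepes pH 7.5, MgCl2, EGTA, Brij35, BSA, DTT, 1% DMSO, with 10 μM [33P]ATP, 120 min at room temp; P81 paper capture and counting. […]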

[1] = tested on: Tyk2-pSTAT4 (IL-12 induced pSTAT4); test: IL-12 induced pSTAT4 in human PBMC; assay type: cell-based; conditions: 1.7 ng/mL IL-12, 30 minutes
Procedure, shortened: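 pSTAT4 and total STAT4 quantified by MSD in cell lysates after 30 minutes of 1.7 ng/mL IL-12 stimulation. Beforehand, compound (0.1% DMSO final) sat 1 hr at 37 C on 200,000 thawed buffy-coat PBMC per well in serum-containing medium.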

[2] = tested on: JAK2-pSTAT5 (GM-CSF induced pSTAT5); test: GM-CSF induced pSTAT5 in human PBMC; assay type: cell-based; conditions: 5 ng/mL GM-CSF
Procedure, shortened: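 Thawed human PBMC, 200,000 per well in serum-containing medium, were preincubated 1 hr at 37 C with compound in 0.1% DMSO. GM-CSF at 5 ng/mL final was added for 20 minutes, then pSTAT5 and total STAT5 in lysates were measured by MSD immunoassay.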

TYK2, sequence (P29597 whole entry): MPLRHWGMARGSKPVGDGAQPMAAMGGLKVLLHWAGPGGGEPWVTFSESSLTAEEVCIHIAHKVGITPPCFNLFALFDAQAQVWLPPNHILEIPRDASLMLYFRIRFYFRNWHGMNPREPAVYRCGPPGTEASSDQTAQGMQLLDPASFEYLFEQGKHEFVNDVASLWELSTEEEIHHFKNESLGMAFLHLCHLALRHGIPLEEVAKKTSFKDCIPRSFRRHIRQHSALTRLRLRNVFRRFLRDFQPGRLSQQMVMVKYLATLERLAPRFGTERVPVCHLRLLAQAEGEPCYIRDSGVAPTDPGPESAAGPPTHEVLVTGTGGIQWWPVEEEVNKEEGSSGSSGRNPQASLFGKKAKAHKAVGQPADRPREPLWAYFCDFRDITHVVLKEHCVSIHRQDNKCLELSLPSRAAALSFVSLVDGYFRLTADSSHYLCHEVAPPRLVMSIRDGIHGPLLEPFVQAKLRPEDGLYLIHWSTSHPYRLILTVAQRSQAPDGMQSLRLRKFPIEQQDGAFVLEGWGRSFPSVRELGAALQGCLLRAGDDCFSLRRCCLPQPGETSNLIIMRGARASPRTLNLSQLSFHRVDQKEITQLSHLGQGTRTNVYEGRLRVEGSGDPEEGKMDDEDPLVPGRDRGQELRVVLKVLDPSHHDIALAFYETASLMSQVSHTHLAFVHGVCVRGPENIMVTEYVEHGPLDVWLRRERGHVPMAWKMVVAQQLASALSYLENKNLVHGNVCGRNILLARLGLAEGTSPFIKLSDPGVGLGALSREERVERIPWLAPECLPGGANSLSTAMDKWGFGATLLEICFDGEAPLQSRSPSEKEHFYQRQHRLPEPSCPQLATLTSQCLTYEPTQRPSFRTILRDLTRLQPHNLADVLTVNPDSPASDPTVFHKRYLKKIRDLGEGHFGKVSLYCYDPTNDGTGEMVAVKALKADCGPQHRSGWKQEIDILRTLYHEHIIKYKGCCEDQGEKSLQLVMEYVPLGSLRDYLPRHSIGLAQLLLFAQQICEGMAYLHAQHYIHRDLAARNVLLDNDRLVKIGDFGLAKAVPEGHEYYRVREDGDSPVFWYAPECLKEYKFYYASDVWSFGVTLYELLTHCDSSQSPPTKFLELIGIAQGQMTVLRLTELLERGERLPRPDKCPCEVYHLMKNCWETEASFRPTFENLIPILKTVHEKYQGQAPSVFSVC

Row | SMILES | Ki (TYK2) [nM] | Ki (JAK2) [nM] | EC50 [1] [nM] | EC50 ([2]; 20 minutes) [nM] | EC50 ([1]; Homo sapiens, PBMC, 0.5 h) [nM] | EC50 ([2]; Homo sapiens, PBMC, 20 min) [nM]
1 | N#Cc1cccc(F)c1-c1cc(-n2ccc(N3CC[C@]4(C3)OC[C@H](O)CO4)n2)c2c(n1)CNC2=O [I-221, 3-fluoro-2-(4-(3-((5r,8r)-8-hydroxy-6,10-dioxa-2-azaspiro-[4.5]decan-2-yl)-1H-pyrazol-1-yl)-5-oxo-6,7-dihydro-5H-pyrrolo[3,4-b]pyridin-2-yl)benzonitrile] | 0.1 to 10 | 0.1 to 10 |  |  | 100 to 2000 | 100 to 2000
2 | [2H]C([2H])([2H])O[C@@H]1CN(c2ccn(-c3cc(-c4c(F)cccc4C#N)nc4c3C(=O)NC4)n2)C[C@@H]1O [I-223, 3-fluoro-2-(4-(3-((3S,4R)-3-hydroxy-4-(methoxy-d3)pyrrolidin-1-yl)-1H-pyrazol-1-yl)-5-oxo-6,7-dihydro-5H-pyrrolo[3,4-b]pyridin-2-yl)benzonitrile] | 0.1 to 10 | 10 to 100 |  |  | 100 to 2000 | 100 to 2000
3 | [2H]C([2H])([2H])O[C@H]1CN(c2ccn(-c3cc(-c4c(F)cccc4C#N)nc4c3C(=O)NC4)n2)C[C@H]1O [I-224, 3-fluoro-2-(4-(3-((3R,4S)-3-hydroxy-4-(methoxy-d3)pyrrolidin-1-yl)-1H-pyrazol-1-yl)-5-oxo-6,7-dihydro-5H-pyrrolo[3,4-b]pyridin-2-yl)benzonitrile] | 0.1 to 10 | 10 to 100 |  |  | 30 to 100 | 100 to 2000
4 | CN1CCO[C@@H]2CN(c3ccn(-c4cc(-c5c(F)cccc5C#N)nc5c4C(=O)NC5)n3)C[C@@H]21 [I-225, 3-fluoro-2-(4-(3-((4aS,7aR)-4-methylhexahydropyrrolo[3,4-b][1,4]oxazin-6 (2H)-yl)-1H-pyrazol-1-yl)-5-oxo-6,7-dihydro-5H-pyrrolo[3,4-b]pyridin-2-yl)benzonitrile] | 0.1 to 10 | 0.1 to 10 |  |  | 100 to 2000 | 100 to 2000
5 | CO[C@H]1CN(c2ccn(-c3cc(-c4c(F)cccc4C#N)nc4c3C(=O)NC4)n2)C[C@@]1(C)O [I-226, 3-fluoro-2-(4-(3-((3R,4S)-3-hydroxy-4-methoxy-3-methyl-pyrrolidin-1-yl)-1H-pyrazol-1-yl)-5-oxo-6,7-dihydro-5H-pyrrolo[3,4-b]pyridin-2-yl)benzonitrile] | 0.1 to 10 | 0.1 to 10 |  |  | 30 to 100 | 100 to 2000
6 | CC1=C(c2ccn(-c3cc(-c4c(F)cccc4C#N)nc4c3C(=O)NC4)n2)CNC1=O [I-227, 3-fluoro-2-(4-(3-(4-methyl-5-oxo-2,5-dihydro-1H-pyrrol-3-yl)-1H-pyrazol-1-yl)-5-oxo-6,7-dihydro-5H-pyrrolo[3,4-b]pyridin-2-yl)benzonitrile] | 0.1 to 10 | 10 to 100 |  |  | 100 to 2000 | 100 to 2000
7 | CO[C@@H]1CCN(c2ccn(-c3cc(-c4c(F)cccc4C#N)nc4c3C(=O)NC4)n2)C[C@]1(C)O [I-228, 3-fluoro-2-(4-(3-((3S,4R)-3-hydroxy-4-methoxy-3-methylpiperidin-1-yl)-1H-pyrazol-1-yl)-5-oxo-6,7-dihydro-5H-pyrrolo[3,4-b]pyridin-2-yl)benzonitrile] | 0.1 to 10 | 10 to 100 | 100 to 2000 | 100 to 2000 |  | 
8 | CO[C@H]1CN(c2ccn(-c3cc(-c4c(F)cccc4C#N)nc4c3C(=O)NC4)n2)C[C@@]1(C)OC [I-230, 2-(4-(3-((3R,4S)-3,4-dimethoxy-3-methylpyrrolidin-1-yl)-1H-pyrazol-1-yl)-5-oxo-6,7-dihydro-5H-pyrrolo[3,4-b]pyridin-2-yl)-3-fluorobenzonitrile] | 0.1 to 10 | 0.1 to 10 |  |  | 100 to 2000 | 100 to 2000
9 | N#Cc1cccc(F)c1-c1cc(-c2ccn(C(=O)N3CCOCC3)n2)c2c(n1)CNC2=O [I-231, 3-fluoro-2-(4-(1-(morpholine-4-carbonyl)-1H-pyrazol-3-yl)-5-oxo-6,7-dihydro-5H-pyrrolo[3,4-b]pyridin-2-yl)benzonitrile] | 10 to 100 | 100 to 1000 |  |  | > 2000 | > 2000
10 | CC(C)c1ncn(-c2cc(-c3c(F)cccc3C#N)nc3c2C(=O)NC3)n1 [I-232, 3-fluoro-2-(4-(3-isopropyl-1H-1,2,4-triazol-1-yl)-5-oxo-6,7-dihydro-5H-pyrrolo[3,4-b]pyridin-2-yl)benzonitrile] | ≥ 1000 | ≥ 1000 |  |  | > 2000 | 100 to 2000
11 | CC(C)c1csc(-c2cc(-c3c(F)cccc3F)nc3c2C(=O)NC3)n1 [I-233, 2-(2,6-difluorophenyl)-4-(4-isopropylthiazol-2-yl)-6,7-dihydro-5H-pyrrolo[3,4-b]pyridin-5-one] | 10 to 100 | ≥ 1000 |  |  | > 2000 | > 2000
12 | N#Cc1cccc(F)c1-c1cc(-c2ccn([C@@H]3COC[C@@H]3O)n2)c2c(n1)CNC2=O [I-234, 3-fluoro-2-(4-(1-((3R,4R)-4-hydroxytetrahydrofuran-3-yl)-1H-pyrazol-3-yl)-5-oxo-6,7-dihydro-5H-pyrrolo[3,4-b]pyridin-2-yl)benzonitrile] | 10 to 100 | 100 to 1000 |  |  | 100 to 2000 | > 2000

The next lines start with the values.

Row | Ki (TYK2) [nM] | Ki (JAK2) [nM] | EC50 [1] [nM] | EC50 ([2]; 20 minutes) [nM] | EC50 ([1]; Homo sapiens, PBMC, 0.5 h) [nM] | EC50 ([2]; Homo sapiens, PBMC, 20 min) [nM] | SMILES
13 | 0.1 to 10 | 0.1 to 10 | 30 to 100 | 100 to 2000 |  |  | N#Cc1cccc(F)c1-c1cc(-n2ccc(N3CC[C@H](C#N)[C@@H](O)C3)n2)c2c(n1)CNC2=O [I-216, (3R,4R)-1-(1-(2-(2-cyano-6-fluorophenyl)-5-oxo-6,7-dihydro-5H-pyrrolo[3,4-b]pyridin-4-yl)-1H-pyrazol-3-yl)-3-hydroxypiperidine-4-carbonitrile]
14 | 0.1 to 10 | 0.1 to 10 |  |  | 30 to 100 | 100 to 2000 | N#Cc1cccc(F)c1-c1cc(-n2ccc(N3CC[C@@H](C#N)[C@H](O)C3)n2)c2c(n1)CNC2=O [I-217, (3S,4S)-1-(1-(2-(2-cyano-6-fluorophenyl)-5-oxo-6,7-dihydro-5H-pyrrolo[3,4-b]pyridin-4-yl)-1H-pyrazol-3-yl)-3-hydroxypiperidine-4-carbonitrile]
15 | 0.1 to 10 | 10 to 100 |  |  | 100 to 2000 | 100 to 2000 | N#Cc1cccc(F)c1-c1cc(-n2ccc(N3CC[C@@H](O)[C@@H](N4CCOCC4)C3)n2)c2c(n1)CNC2=O [I-218, 3-fluoro-2-(4-(3-((3S,4R)-4-hydroxy-3-morpholinopiperidin-1-yl)-1H-pyrazol-1-yl)-5-oxo-6,7-dihydro-5H-pyrrolo[3,4-b]pyridin-2-yl)benzonitrile]
16 | 0.1 to 10 | 10 to 100 |  |  | 100 to 2000 | 100 to 2000 | CC1(O)CN(c2ccn(-c3cc(-c4c(F)cccc4C#N)nc4c3C(=O)NC4)n2)CCC1F (centres unmarked) [I-219, 3-fluoro-2-(4-(3-(4-fluoro-3-hydroxy-3-methylpiperidin-1-yl)-1H-pyrazol-1-yl)-5-oxo-6,7-dihydro-5H-pyrrolo[3,4-b]pyridin-2-yl)benzonitrile]
17 | 0.1 to 10 | 10 to 100 |  |  | 100 to 2000 | > 2000 | [2H]C1([2H])N(c2ccn(-c3cc(-c4c(F)cccc4C#N)nc4c3C(=O)NC4)n2)C([2H])([2H])[C@](C)(O)C([2H])([2H])C1([2H])[2H] [I-220, (R)-3-fluoro-2-(4-(3-(3-hydroxy-3-methylpiperidin-1-yl-2,2,4,4,5,5,6,6-d8)-1H-pyrazol-1-yl)-5-oxo-6,7-dihydro-5H-pyrrolo[3,4-b]pyridin-2-yl)benzonitrile]
